According to PubChem BioAssay AID2060886 (Molecular Pharmacology Branch, DTP, NCI, 2025):

System: 653999-131-R-J2-PDC complex spheroids, growth inhibition
Experiment: Anticancer human tumor 653999-131-R-J2-PDC patient-derived lung adenocarcinoma cell line growth inhibition [RAS]
Conditions: for IC50: curve of first compound; for viability, T/C: stronger effect = lower value; active = viability on the fitted dose curve at most 10% of control; inactive = the rest
Procedure, shortened: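 Tumour cells grown as complex spheroids with HUVEC endothelial cells and mesenchymal stem cells, treated with RAS pathway inhibitor combinations. Each agent spans half-log steps from near clinical Cmax, or 10 microM where Cmax is unknown.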

[1] = second compound 0.000949 µM, first compound 0.00316 µM
[2] = second compound 0.000949 µM, first compound 0.01 µM
[3] = second compound 0.000949 µM, first compound 0.0316 µM
[4] = second compound 0.000949 µM, first compound 0.1 µM
[5] = second compound 0.003 µM, first compound 0.00316 µM
[6] = second compound 0.003 µM, first compound 0.01 µM
[7] = second compound 0.003 µM, first compound 0.0316 µM
[8] = second compound 0.003 µM, first compound 0.1 µM
[9] = second compound 0.00949 µM, first compound 0.00316 µM
[10] = second compound 0.00949 µM, first compound 0.01 µM
[11] = second compound 0.00949 µM, first compound 0.0316 µM
[12] = second compound 0.00949 µM, first compound 0.1 µM
[13] = second compound 0.03 µM, first compound 0.00316 µM
[14] = second compound 0.03 µM, first compound 0.01 µM
[15] = second compound 0.03 µM, first compound 0.0316 µM
[16] = second compound 0.03 µM, first compound 0.1 µM
[17] = second compound 0.0949 µM, first compound 0.00316 µM
[18] = second compound 0.0949 µM, first compound 0.01 µM
[19] = second compound 0.0949 µM, first compound 0.0316 µM
[20] = second compound 0.0949 µM, first compound 0.1 µM
[21] = second compound 0.3 µM, first compound 0.00316 µM
[22] = second compound 0.3 µM, first compound 0.01 µM
[23] = second compound 0.3 µM, first compound 0.0316 µM
[24] = second compound 0.3 µM, first compound 0.1 µM
[25] = second compound 0.000949 µM, first compound 0.316 µM
[26] = second compound 0.000949 µM, first compound 1 µM
[27] = second compound 0.003 µM, first compound 0.316 µM
[28] = second compound 0.003 µM, first compound 1 µM
[29] = second compound 0.00949 µM, first compound 0.316 µM
[30] = second compound 0.00949 µM, first compound 1 µM
[31] = second compound 0.03 µM, first compound 0.316 µM
[32] = second compound 0.03 µM, first compound 1 µM
[33] = second compound 0.0949 µM, first compound 0.316 µM
[34] = second compound 0.0949 µM, first compound 1 µM
[35] = second compound 0.3 µM, first compound 0.316 µM
[36] = second compound 0.3 µM, first compound 1 µM
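Note: spheroids exposed to the agents for seven days before the readout.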

CC(C)n1nc(-c2ccc3oc(N)nc3c2)c2c(N)ncnc21 + CCn1c(-c2cccnc2C(C)OC)c2c3cc(ccc31)N1CCOC(CC(NC(=O)C(C(C)C)N(C)C(=O)C3(F)CCN(C(=O)C#CC(C)(C)N(C)C)CC3)C(=O)N3CCCC(N3)C(=O)OCC(C)(C)C2)C1
21.8 nM: IC50 (second compound 0.000949 µM)
24.6 nM: IC50 (second compound 0.0949 µM)
inactive: viability, T/C (second compound 0.000949 µM, first compound 0.000316 µM) 85.9% | viability, T/C (second compound 0.000949 µM, first compound 0.001 µM) 95.4% | viability, T/C [1] 82.9% | viability, T/C [2] 66% | viability, T/C [3] 42.9% | viability, T/C [4] 28.4% | viability, T/C (second compound 0.003 µM, first compound 0.000316 µM) 95.8% | viability, T/C (second compound 0.003 µM, first compound 0.001 µM) 104% | viability, T/C [5] 87.3% | viability, T/C [6] 62.7% | viability, T/C [7] 42.9% | viability, T/C [8] 34% | viability, T/C (second compound 0.00949 µM, first compound 0.000316 µM) 107% | viability, T/C (second compound 0.00949 µM, first compound 0.001 µM) 98.8% | viability, T/C [9] 94.5% | viability, T/C [10] 63.9% | viability, T/C [11] 41.1% | viability, T/C [12] 32.9% | viability, T/C (second compound 0.03 µM, first compound 0.000316 µM) 100% | viability, T/C (second compound 0.03 µM, first compound 0.001 µM) 93.8% | viability, T/C [13] 76.9% | viability, T/C [14] 59.3% | viability, T/C [15] 47.4% | viability, T/C [16] 29.1% | viability, T/C (second compound 0.0949 µM, first compound 0.000316 µM) 97.7% | viability, T/C (second compound 0.0949 µM, first compound 0.001 µM) 95.8% | viability, T/C [17] 79.4% | viability, T/C [18] 68.1% | viability, T/C [19] 44% | viability, T/C [20] 31.8% | viability, T/C (second compound 0.3 µM, first compound 0.000316 µM) 92.4% | viability, T/C (second compound 0.3 µM, first compound 0.001 µM) 93.8% | viability, T/C [21] 81.7% | viability, T/C [22] 54.6% | viability, T/C [23] 45.4% | viability, T/C [24] 44.9%
22.1 nM: IC50 (second compound 0.03 µM)
17.7 nM: IC50 (second compound 0.3 µM)
20.1 nM: IC50 (second compound 0.003 µM) | IC50 (second compound 0.00949 µM)

CCN1CCN(Cc2ccc(Nc3ncc(F)c(-c4cc(F)c5nc(C)n(C(C)C)c5c4)n3)nc2)CC1 + CCn1c(-c2cccnc2C(C)OC)c2c3cc(ccc31)N1CCOC(CC(NC(=O)C(C(C)C)N(C)C(=O)C3(F)CCN(C(=O)C#CC(C)(C)N(C)C)CC3)C(=O)N3CCCC(N3)C(=O)OCC(C)(C)C2)C1
inactive: viability, T/C [1] 101% | viability, T/C [2] 87.8% | viability, T/C [3] 75.3% | viability, T/C [4] 67.6% | viability, T/C [25] 73.2% | viability, T/C [26] 78.4% | viability, T/C [5] 98.5% | viability, T/C [6] 76.9% | viability, T/C [7] 75.5% | viability, T/C [8] 75% | viability, T/C [27] 71.8% | viability, T/C [28] 92.9% | viability, T/C [9] 105% | viability, T/C [10] 99.5% | viability, T/C [11] 64.8% | viability, T/C [12] 77.6% | viability, T/C [29] 80% | viability, T/C [30] 82.2% | viability, T/C [13] 95.1% | viability, T/C [14] 75.7% | viability, T/C [15] 79.2% | viability, T/C [16] 64.2% | viability, T/C [31] 89.9% | viability, T/C [32] 79.1% | viability, T/C [17] 90.9% | viability, T/C [18] 85.6% | viability, T/C [19] 79.5% | viability, T/C [20] 69.3% | viability, T/C [33] 83.7% | viability, T/C [34] 81.3% | viability, T/C [21] 95.4% | viability, T/C [22] 81.6% | viability, T/C [23] 73.7% | viability, T/C [24] 60.8% | viability, T/C [35] 84.6% | viability, T/C [36] 77.6%
> 1000 nM: IC50 (second compound 0.000949 µM) | IC50 (second compound 0.003 µM) | IC50 (second compound 0.00949 µM) | IC50 (second compound 0.03 µM) | IC50 (second compound 0.0949 µM) | IC50 (second compound 0.3 µM)

C[C@@H](NC(=O)c1ncnc(N)c1Cl)c1ncc(C(=O)Nc2cc(C(F)(F)F)c(Cl)cn2)s1 + CCn1c(-c2cccnc2C(C)OC)c2c3cc(ccc31)N1CCOC(CC(NC(=O)C(C(C)C)N(C)C(=O)C3(F)CCN(C(=O)C#CC(C)(C)N(C)C)CC3)C(=O)N3CCCC(N3)C(=O)OCC(C)(C)C2)C1
> 10000 nM: IC50 (second compound 0.000949 µM) | IC50 (second compound 0.003 µM) | IC50 (second compound 0.00949 µM) | IC50 (second compound 0.03 µM) | IC50 (second compound 0.0949 µM) | IC50 (second compound 0.3 µM)
inactive: viability, T/C [3] 95.5% | viability, T/C [4] 123% | viability, T/C [25] 95.5% | viability, T/C [26] 101% | viability, T/C (second compound 0.000949 µM, first compound 3.16 µM) 106% | viability, T/C (second compound 0.000949 µM, first compound 10 µM) 83.6% | viability, T/C [7] 105% | viability, T/C [8] 104% | viability, T/C [27] 126% | viability, T/C [28] 104% | viability, T/C (second compound 0.003 µM, first compound 3.16 µM) 100% | viability, T/C (second compound 0.003 µM, first compound 10 µM) 73.7% | viability, T/C [11] 113% | viability, T/C [12] 115% | viability, T/C [29] 119% | viability, T/C [30] 112% | viability, T/C (second compound 0.00949 µM, first compound 3.16 µM) 108% | viability, T/C (second compound 0.00949 µM, first compound 10 µM) 94.8% | viability, T/C [15] 111% | viability, T/C [16] 109% | viability, T/C [31] 107% | viability, T/C [32] 107% | viability, T/C (second compound 0.03 µM, first compound 3.16 µM) 100% | viability, T/C (second compound 0.03 µM, first compound 10 µM) 95.3% | viability, T/C [19] 113% | viability, T/C [20] 97.3% | viability, T/C [33] 121% | viability, T/C [34] 107% | viability, T/C (second compound 0.0949 µM, first compound 3.16 µM) 121% | viability, T/C (second compound 0.0949 µM, first compound 10 µM) 91.5% | viability, T/C [23] 104% | viability, T/C [24] 98.9% | viability, T/C [35] 93.4% | viability, T/C [36] 121% | viability, T/C (second compound 0.3 µM, first compound 3.16 µM) 101% | viability, T/C (second compound 0.3 µM, first compound 10 µM) 85.9%
